In patent US20030061759A1, “Method for expelling harmful insects by volatilization of a chemical” (FUMAKILLA LIMITED, priority 2000, published 2003):
Read-outs that look alike come from different tables or passages of the source.

Columns and labels:
[1] = test system: female adult stegomyia mosquitoes (Aedes albopictus); test: Comparative debugging efficaciousness tests: bloodsucking prevention on rats, liquid type electric mosquito repellent utensil; assay type: in vivo; settings: for efficacy of preventing mosquitoes from bloodsucking rats compared with transfluthrin: comparison in words; for Potency Ratio (Etoc 100), of IC50 Value / Potency Ratio (Etoc 100), of IC90 Value: relative to d,d-T80-prallethrin (Etoc) = 100
Procedure: First, debugging efficaciousness tests were performed. For the criterion of judgment to compare degrees of efficaciousness, the effect of bloodsucking by mosquitoes of rats was adopted. Based on this, the following efficaciousness tests were carried out.
Comparative Debugging Efficaciousness Tests
Sample chemicals that were used were as follows: d,d-T80-prallethrin, transfluthrin, d1,d-T80-allethrin, d-T80-furamethrin, terallethrin and empenthrin; and pyrethroid technical products (sample chemicals) A, B, C, D, E, F, G and H.
Sample insects that were used were as follows: female adult stegomyia mosquitoes (Aedes albopictus) of Fumakilla (spelled phonetically) series 6th to 9th after emergence.
Sample chemical volatilizing form: A liquid type electric mosquito repellent utensil, a liquid agent (referred to below as “sample liquid”), obtained by diluting each of the sample chemicals with a solvent in a varying concentration, was allowed to volatilize.
Method used for tests: A test was conducted in two 8 straw mat (13.2 m^2) rooms, one as a treatment zone and the other as a non-treatment zone, both in a no-wind state and at a constant room temperature of 32° C.
In the treatment zone, three cages each with a rat confined therein were placed equidistantly spaced apart (about 20 cm) in the center of the test room. The mosquito repellent utensil placed on the floor surface of the center of the test room was preliminarily electrically energized for operation, and to thermally volatilize each of the sample liquids and fumigate the room therewith for a period of 30 minutes, and then about 100 (one hundred) of sample mosquitoes were released into the test room. After two hours following the release of the mosquitoes, all these sample mosquitoes were knocked-down by using a mosquito repellent mat, and the number of the mosquitoes which had bloodsucking was counted to find the proportion of bloodsucking.
In the non-treatment zone, also, after the 2 hours of bloodsucking, the proportion of bloodsucking was found.
A rate of bloodsucking prevention was derived from the proportions of bloodsucking in the treatment and non-treatment rooms as expressed by the following equation:
Rate of bloodsucking prevention =[(Total bloodsucking proportion in the non-treatment zone−Total bloodsucking proportion in the treatment zone)÷Total bloodsucking proportion in the non-treatment zone]×100
Also, on the basis of these amounts of volatilization and rates of bloodsucking prevention, an amount of volatilization at a 50% rate of bloodsucking prevention (IC50 value) and an amount of volatilization at a 90% rate of bloodsucking prevention (IC90 value) are found and shown in Table 1 below.

[2] = Comparative vapor pressure tests by gas chromatography; assay type: physicochemical
Procedure: 2. Comparative Vapor Pressure Tests
Next, by using gas chromatography, the various chemicals including sample chemicals A, B and C screened out by the foregoing comparative debugging efficaciousness tests were compared with d,d-T80-prallethrin (Etoc) as regards to their vapor pressures.
The gas chromatography test included as its temperature conditions an initial temperature of 60° C., and a temperature rise of 5° C. per minute up to a maximum temperature of 250° C., which was held for a period of 5 minutes, whereupon the process ended.
The filler used was made up of methyl silicon polymer, which is non-polar.
It should also be noted that as an internal standard substance use was made of sebacic acid-n-butyl and which was added to confirm that there was no deviation in retention time from one test to another.
Retention times for the various chemicals are listed in Table 2 in the order of shorter to longer.

[3] = test system: female adult common house mosquitoes (Culex pipiens pallens); test: Example 1: spontaneous volatilization efficaciousness test in 33 m^3 room (knockdown, KT50); assay type: in vivo; settings: for potency and retention of potency compared with transfluthrin: comparison in words
Excerpt: Using sample chemicals A, B and C screened out by the preliminary tests, the efficaciousness of each of them when allowed to volatilize spontaneously was compared with that of transfluthrin when allowed to volatilize spontaneously.
Sample Preparations (Chemicals and Their Carriers According to the Present Invention):
(§1) A non-woven polypropylene fabric (made by Idemitsu Petroleum Chemicals Co., Ltd., product name RW2100, density 100 grams/m^2) of 50 cm×40 cm was coated with a hexane solution of 100 milliliter containing 1% (W/V) sample chemicals A, B, C and left to dry for 24 hours (effective amount of chemical: 1000 milligrams).
Comparative Preparation (Chemical and its Carrier):
as §1, with “of transfluthrin” for “sample chemicals A, B, C”
Testing Method: Efficaciousness Tests in an 8 Straw Mat room with a volume of 33 m^3
In the center of the test room with a volume of 33 m^3 (3.65 m×3.65 m×2.5 m high), each chemical carrier as prepared as above was placed as hung on a hook suspended in the center of the room to let the corresponding chemical volatilize spontaneously for a period of 3 hours. Thereafter, a triangular net casing (20 cm×20 cm×16.4 cm high) of 16 mesh nylon net containing 10 (ten) female adult common house mosquitoes (Culex pipiens pallens) was placed as hung in an area at each of the four corners (spaced from the wall surfaces at a distance of 90 cm) at a height of 150 cm from the room floor and was exposed to the chemical atmosphere.
A test was also conducted likewise for the comparative carrier.
After the tests ended, the samples chemicals were let to volatilize spontaneously in the room having a constant temperature of 30° C. The same test was repeated at given intervals and efficaciousness was then examined each time.

[4] = 13.2 m^2 room, 32° C., 30 min pre-fumigation, 2 hours after release, rats
[5] = 60° C. initial, 5° C. per minute up to 250° C., non-polar methyl silicon polymer filler

C#CC(OC(=O)C1C(C=C(Cl)Cl)C1(C)C)C(F)=CCC (centres unmarked) [Sample Chemical B, 1-ethnyl-2-fluoro-2-pentenyl 3-(2,2-dichlorovinyl)-2,2-dimethylcyclopropanecarboxylate]
IC50 Value (amount of volatilization at a 50% rate of bloodsucking prevention) [1, 4]: 0.0047 mg/h | IC90 Value (amount of volatilization at a 90% rate of bloodsucking prevention) [1, 4]: 0.0083 mg/h | efficacy of preventing mosquitoes from bloodsucking rats compared with transfluthrin [1]: more efficacious than transfluthrin | Potency Ratio (Etoc 100), of IC50 Value [1]: 172.3 | Potency Ratio (Etoc 100), of IC90 Value [1]: 469.9 | Retention Time (gas chromatography, as comparison of vapor pressure) [2]: 26.4 min | vapor pressure compared with transfluthrin and d,d-T80-prallethrin [2]: lower than transfluthrin, but higher than d,d-T80-prallethrin | potency and retention of potency compared with transfluthrin [3]: higher in potency and also longer in retention time than transfluthrin | KT50 ([3]; elapsed time 0 hr): 8.64 min | KT50 ([3]; elapsed time 168 hr): 7.53 min | KT50 ([3]; elapsed time 336 hr): 7.77 min | KT50 ([3]; elapsed time 504 hr): 7.48 min | KT50 ([3]; elapsed time 672 hr): 6.45 min | KT50 ([3]; elapsed time 864 hr): 7.90 min | KT50 ([3]; elapsed time 1056 hr): 8.00 min | KT50 ([3]; elapsed time 1200 hr): 8.00 min | KT50 ([3]; elapsed time 1344 hr): 8.40 min | KT50 ([3]; elapsed time 1536 hr): 8.60 min | KT50 ([3]; elapsed time 1680 hr): 9.60 min | KT50 ([3]; elapsed time 1848 hr): 10.40 min | KT50 ([3]; elapsed time 2016 hr): 9.87 min | KT50 ([3]; elapsed time 2208 hr): 11.70 min | KT50 ([3]; elapsed time 2352 hr): 10.80 min | KT50 ([3]; elapsed time 2520 hr): 12.00 min | KT50 ([3]; elapsed time 2688 hr): 12.70 min | KT50 ([3]; elapsed time 2856 hr): 13.50 min | KT50 ([3]; elapsed time 3024 hr): 14.90 min | KT50 ([3]; elapsed time 3192 hr): 18.60 min | KT50 ([3]; elapsed time 3360 hr): 20.70 min | KT50 ([3]; elapsed time 3528 hr): 22.90 min | KT50 ([3]; elapsed time 3696 hr): 26.80 min | KT50 ([3]; elapsed time 3864 hr): 28.00 min | KT50 ([3]; elapsed time 4032 hr): 25.60 min | KT50 ([3]; elapsed time 4200 hr): 32.70 min

Cc1c(F)c(F)c(COC(=O)C2C(C=C(F)Cl)C2(C)C)c(F)c1F (centres unmarked) [Sample Chemical C, 2,3,5,6-tetrafluoro-4-methylbenzyl 3-(2-chloro-2-fluorovinyl)-2,2-dimethylcyclopropanecarboxylate]
efficacy of preventing mosquitoes from bloodsucking rats compared with transfluthrin [1]: more efficacious than transfluthrin | Potency Ratio (Etoc 100), of IC50 Value [1]: 130.6 | Potency Ratio (Etoc 100), of IC90 Value [1]: 348.2 | Retention Time (gas chromatography, as comparison of vapor pressure) [2, 5]: 24.5 min | vapor pressure compared with transfluthrin and d,d-T80-prallethrin ([2]; from GC retention times): lower than transfluthrin, but higher than d,d-T80-prallethrin | potency and retention of potency compared with transfluthrin [3]: higher in potency and also longer in retention time than transfluthrin | KT50 ([3]; elapsed time 0 hr): 5.53 min | KT50 ([3]; elapsed time 168 hr): 7.53 min | KT50 ([3]; elapsed time 336 hr): 7.55 min | KT50 ([3]; elapsed time 504 hr): 6.95 min | KT50 ([3]; elapsed time 672 hr): 7.98 min | KT50 ([3]; elapsed time 864 hr): 12.60 min | KT50 ([3]; elapsed time 1056 hr): 10.70 min | KT50 ([3]; elapsed time 1200 hr): 11.50 min | KT50 ([3]; elapsed time 1344 hr): 12.60 min | KT50 ([3]; elapsed time 1536 hr): 15.90 min | KT50 ([3]; elapsed time 1680 hr): 20.70 min | KT50 ([3]; elapsed time 1848 hr): 25.90 min | KT50 ([3]; elapsed time 2016 hr): 27.80 min | KT50 ([3]; elapsed time 2208 hr): 30.60 min

CC1(C)[C@H](C=C(Cl)Cl)[C@H]1C(=O)OCc1c(F)c(F)cc(F)c1F [Transfluthrin, reference compound]
Potency Ratio (Etoc 100), of IC50 Value [1]: 19.0 | Potency Ratio (Etoc 100), of IC90 Value [1]: 29.2 | Retention Time (gas chromatography, as comparison of vapor pressure) [2, 5]: 23.6 min | KT50 ([3]; elapsed time 0 hr): 11.10 min | KT50 ([3]; elapsed time 168 hr): 8.73 min | KT50 ([3]; elapsed time 336 hr): 9.17 min | KT50 ([3]; elapsed time 504 hr): 13.40 min | KT50 ([3]; elapsed time 672 hr): 12.10 min | KT50 ([3]; elapsed time 864 hr): 17.20 min | KT50 ([3]; elapsed time 1056 hr): 15.60 min | KT50 ([3]; elapsed time 1200 hr): 20.40 min | KT50 ([3]; elapsed time 1344 hr): 18.80 min | KT50 ([3]; elapsed time 1536 hr): 28.10 min | KT50 ([3]; elapsed time 1680 hr): 30.40 min
